Data reported in the supplement of paper PMC10307832.

What follows are cell lines tested with CC(C)(C)c1nc(-c2cccc(NS(=O)(=O)c3c(F)cccc3F)c2F)c(-c2ccnc(N)n2)s1 [Dabrafenib] + Cc1cc(Nc2cc(N3CCN(C)CC3)nc(Sc3ccc(NC(=O)C4CC4)cc3)n2)n[nH]1 [Tozasertib] (partner 0.1 µM) (assay: relative viability (nuclei count vs DMSO), 5 days (fraction); higher = more cells survive). Details: first compound 0.009487 µM.
Procedure, shortened: (§1)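 Relative viability equals treated-well nuclei counts divided by vehicle-well nuclei counts. Counts came from 4× images of lung cancer cell lines grown in 1536-well plates for 5 days after pin-tool dosing on the day after seeding. Dosing used one drug alone or a fixed anchor-drug dose plus five library-drug doses (not always all listed) in √10 steps, and values are medians of duplicate plates.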
In the case of SW 1573, the relative viability is reported as 0.233.
For NCI-H2342, the relative viability was 0.484.
NCI-H661 showed a relative viability of 0.364.
In the case of NCI-H2009, the relative viability is reported as 0.759.
With NCI-H520 the relative viability was 0.486.
Work on NCI-H2023 yielded a relative viability of 0.382.
For NCI-H1623, the relative viability was 0.466.
Cell Line SK-MES-1 has a relative viability of 0.874.

Same assay, conditions: first compound 0.03 µM
ABC-1 showed a relative viability of 0.206.
CAL-12T was tested, and the relative viability was 0.423.
Work on NCI-H1944 yielded a relative viability of 0.233.
Work on NCI-H2085 yielded a relative viability of 0.734.
NCI-H2228 gave a relative viability of 0.248.
For NCI-H441, the relative viability was 0.632.
With NCI-H522 the relative viability was 0.59.
Cell Line EMC-BAC-2 has a relative viability of 0.23.
With NCI-H2170 the relative viability was 0.632.
For UMC-11, the relative viability was 0.19.
Work on NCI-H650 yielded a relative viability of 0.738.
In the case of LCLC-103H, the relative viability is reported as 0.424.
For NCI-H596, the relative viability was 0.826.
For HCC-827, the relative viability was 0.383.
COR-L 105 showed a relative viability of 0.362.
In the case of NCI-H2126, the relative viability is reported as 0.858.
In the case of HCC-44, the relative viability is reported as 0.976.
NCI-H1650 was tested, and the relative viability was 0.408.
ChaGo-K-1 gave a relative viability of 0.225.
With NCI-H1648 the relative viability was 0.685.
Work on COR-L23 yielded a relative viability of 0.201.
SK-LU-1 gave a relative viability of 0.255.
SW 1573 showed a relative viability of 0.191.
NCI-H2342 gave a relative viability of 0.452.
In the case of NCI-H661, the relative viability is reported as 0.372.
Cell Line NCI-H2009 has a relative viability of 0.672.
With NCI-H2023 the relative viability was 0.35.
Cell Line NCI-H1623 has a relative viability of 0.431.
SK-MES-1 showed a relative viability of 0.861.

Same assay, conditions: first compound 0.09487 µM
ABC-1 showed a relative viability of 0.132.
For CAL-12T, the relative viability was 0.328.
In the case of NCI-H1944, the relative viability is reported as 0.254.
With NCI-H2085 the relative viability was 0.75.
NCI-H2228 was tested, and the relative viability was 0.236.
With NCI-H441 the relative viability was 0.571.
Work on NCI-H522 yielded a relative viability of 0.58.
EMC-BAC-2 showed a relative viability of 0.243.
With NCI-H2170 the relative viability was 0.62.
Cell Line UMC-11 has a relative viability of 0.197.
Cell Line NCI-H650 has a relative viability of 0.502.
LCLC-103H gave a relative viability of 0.44.
NCI-H596 gave a relative viability of 0.821.
COR-L 105 showed a relative viability of 0.347.
With NCI-H2126 the relative viability was 0.862.
HCC-44 gave a relative viability of 0.836.
For NCI-H1650, the relative viability was 0.419.
With ChaGo-K-1 the relative viability was 0.194.
NCI-H1648 was tested, and the relative viability was 0.396.
For COR-L23, the relative viability was 0.205.
SK-LU-1 was tested, and the relative viability was 0.311.
SW 1573 was tested, and the relative viability was 0.19.
NCI-H2342 gave a relative viability of 0.52.
NCI-H661 gave a relative viability of 0.38.
NCI-H2009 showed a relative viability of 0.649.
Cell Line NCI-H520 has a relative viability of 0.417.
NCI-H2023 showed a relative viability of 0.321.
In the case of NCI-H1623, the relative viability is reported as 0.447.
Cell Line SK-MES-1 has a relative viability of 0.811.

Same assay, conditions: first compound 0.3 µM
In the case of ABC-1, the relative viability is reported as 0.174.
CAL-12T was tested, and the relative viability was 0.349.
For NCI-H1944, the relative viability was 0.239.
Cell Line NCI-H2085 has a relative viability of 0.706.
Work on NCI-H2228 yielded a relative viability of 0.244.
In the case of NCI-H441, the relative viability is reported as 0.495.
Work on NCI-H522 yielded a relative viability of 0.621.
EMC-BAC-2 showed a relative viability of 0.267.
Work on NCI-H2170 yielded a relative viability of 0.727.
For UMC-11, the relative viability was 0.231.
With NCI-H650 the relative viability was 0.38.
LCLC-103H gave a relative viability of 0.5.
In the case of NCI-H596, the relative viability is reported as 0.977.
HCC-827 gave a relative viability of 0.377.
In the case of COR-L 105, the relative viability is reported as 0.395.
For NCI-H2126, the relative viability was 0.882.
In the case of HCC-44, the relative viability is reported as 0.989.
In the case of NCI-H1650, the relative viability is reported as 0.384.
For ChaGo-K-1, the relative viability was 0.239.
With NCI-H1648 the relative viability was 0.376.
COR-L23 was tested, and the relative viability was 0.19.
SK-LU-1 was tested, and the relative viability was 0.332.
Cell Line SW 1573 has a relative viability of 0.241.
With NCI-H2342 the relative viability was 0.586.
With NCI-H661 the relative viability was 0.352.
NCI-H2009 showed a relative viability of 0.62.
For NCI-H520, the relative viability was 0.408.
Work on NCI-H2023 yielded a relative viability of 0.356.
Cell Line NCI-H1623 has a relative viability of 0.524.
SK-MES-1 was tested, and the relative viability was 0.565.

What follows are cell lines tested with NC(=O)c1ccc(N(C(N)=O)c2c(F)cccc2F)nc1-c1ccc(F)cc1F [VX-702] + Cc1nc(NC(=O)N2CCC[C@H]2C(N)=O)sc1-c1ccnc(C(C)(C)C(F)(F)F)c1 [Alpelisib] (partner 2 µM) in the same assay as above. Details: first compound 0.02 µM.
Procedure, shortened: as §1
ABC-1 gave a relative viability of 0.948.
For CAL-12T, the relative viability was 1.22.
For NCI-H1944, the relative viability was 0.76.
With NCI-H2085 the relative viability was 1.08.
IA-LM showed a relative viability of 0.718.
Work on NCI-H2228 yielded a relative viability of 0.826.
NCI-H441 gave a relative viability of 0.847.
For EMC-BAC-2, the relative viability was 0.766.
With NCI-H2170 the relative viability was 0.801.
NCI-H1703 showed a relative viability of 0.304.
With UMC-11 the relative viability was 0.954.
Work on NCI-H650 yielded a relative viability of 1.11.
LCLC-103H gave a relative viability of 0.964.
In the case of NCI-H596, the relative viability is reported as 0.437.
HCC-827 gave a relative viability of 0.982.
COR-L 105 was tested, and the relative viability was 1.08.
Cell Line NCI-H1299 has a relative viability of 1.14.
In the case of NCI-H2126, the relative viability is reported as 0.708.
A549 gave a relative viability of 0.727.
HCC-44 showed a relative viability of 0.861.
For NCI-H1792, the relative viability was 0.668.
Cell Line Calu-6 has a relative viability of 0.942.
Cell Line COR-L23 has a relative viability of 0.947.
SK-LU-1 gave a relative viability of 1.08.
With SW 1573 the relative viability was 0.789.
NCI-H1563 gave a relative viability of 0.905.
NCI-H661 was tested, and the relative viability was 0.536.
NCI-H2009 was tested, and the relative viability was 1.21.
NCI-H520 gave a relative viability of 0.919.
In the case of EBC-1, the relative viability is reported as 0.777.
NCI-H2023 was tested, and the relative viability was 0.55.
SK-MES-1 was tested, and the relative viability was 0.739.
